Source: patent publication US20090099167A1, “Organic compounds” (Novartis Institutes for Biomedical Research, priority 2004, published 2009)
Like-named read-outs stand apart in the source and are kept apart here.

Columns and labels:
Cdk1/cycB = Cdk1/cycB (UniProt P06493); experiment: Cdk1/cycB kinase assay, histone H1 substrate; format: biochemical, starfish; settings: Table 4; read-out: Cdk1, activity (IC50 for kinase inhibition)
Method: The inhibition of Cdk1 can be determined as follows: Cdk1/cycB: Cdk1/cycB are obtained from ProQinase, Freiburg, Germany. Starfish oocytes are induced to enter M phase of the cell cycle with 10 μM 1-methyladenine and frozen in liquid nitrogen and stored at −80° C. […] Briefly, the supernatant from oocytes is equilibrated for 30 min at 4° C. under constant rotation with the p9^CKShs-sepharose beads. The beads are extensively washed and active cdk1/cycB kinase is eluted with purified p9^CKShs (3 mg/ml). […] The assay is carried with slight modifications in 96-well plates at ambient temperature for 20 min. […] The reaction is terminated by addition of 25 μl 0.05 M EDTA pH 7.0. An aliquot of 40 μl is spotted with a multichannel dispenser on Immobilon P membranes mounted in a Millipore Microtiter filter manifold connected to a low vacuum source. After elimination of liquid, the membrane is transferred to a sequence of 4 washing baths containing 0.5% H3PO4 and one with EtOH (shaking incubation for 10 min each), dried, mounted onto a Hewlett Packard TopCount manifold added 10 μl Microscint® and counted. […] Cells were seeded at 2.5×10^7 cells per 150 mm dish and allowed to attach to a 150 mm dish for 1 hr at RT. Media (SF900II containing 10% FBS) is aspirated and recombinant baculovirus; GST-C-Raf-1, v-Ras and v-Src are added at MOI of 3.0, 2.5 and 2.5 receptively in a total volume of 4-5 mL. Cells are incubated for 1 hr at RT and then 15 mL of medium is added. Infected cells are incubated for 48-72 hr at 27° C. Infected Sf21 cells are scraped and collected into a 50 mL tube and centrifuged for 10 min at 4° C. at 1100 g in a Sorvall centrifuge. The cell pellet is washed once with ice cold PBS and lysed with 0.6 mL lysis buffer per 2.5×10^7 cells. Complete lysis of cells is achieved after 10 min on ice with occasional pipetting. […] GST-c-Raf-1 was allowed to bind to the beads at 4° C. for 1 hr with rocking. Bound GST-c-Raf-1 with beads was transferred to a column. The column is washed once with lysis buffer and twice with ice cold Tris buffered saline. Ice cold elution buffer is added and column flow is stopped to allow the free glutathione to disrupt the interaction of GST-c-Raf-1 with glutathione sepharose beads. Fractions (1 mL) are collected into pre-chilled tubes. Each tube contains 10% glycerol (final concentration) to maintain kinase activity during freeze thaw cycles. Purified fractions of GST-c-Raf-1 kinase protein are stored at −80° C.

human EphB4 receptor = target: T1, human EphB4 receptor (Homo sapiens, UniProt P54760); experiment: EphB4 kinase assay, GST-EphB, 33P incorporation into poly(Glu,Tyr); format: biochemical
T1 construct: made in house; host or cells: Sf9 or Sf21 (baculovirus)
T1 sequence (P54760 566-987): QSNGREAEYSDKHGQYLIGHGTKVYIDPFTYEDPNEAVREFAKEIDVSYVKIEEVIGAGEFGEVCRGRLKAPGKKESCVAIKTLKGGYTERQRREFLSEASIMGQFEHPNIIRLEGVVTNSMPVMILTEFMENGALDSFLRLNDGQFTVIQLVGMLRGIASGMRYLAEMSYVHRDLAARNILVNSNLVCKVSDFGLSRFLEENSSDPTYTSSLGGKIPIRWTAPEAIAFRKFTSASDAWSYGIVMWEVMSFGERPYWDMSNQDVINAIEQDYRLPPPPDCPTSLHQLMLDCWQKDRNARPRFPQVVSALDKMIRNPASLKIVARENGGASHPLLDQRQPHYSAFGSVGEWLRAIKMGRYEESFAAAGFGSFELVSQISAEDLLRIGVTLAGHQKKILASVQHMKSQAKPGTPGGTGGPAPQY
Excerpt: EphB4: Production and measure of enzymatic activity: Generation of Bac-to-Bac™ (Initrogen Life Technologies, Basel, Switzerland) GST-fusion expression vectors: Entire cytoplasmatic coding regions of the EphB-class are amplified by PCR from cDNA libraries derived from human placenta or brain, respectively. Recombinant baculovirus are generated that express the amino acid region 566-987 of the human EphB4 receptor (SwissProt Database, Accession No. P54760). GST sequence is cloned into pFastBac1® vector (Invitrogen Life Technologies, Basel, Switzerland) and PCR amplified. cDNAs encoding EphB4-receptor domains, respectively, are cloned in frame 3′prime to the GST sequence into this modified FastBac1 vector to generate pBac-to-Bac™ donor vectors. Single colonies arising from the transformation are inoculated to give overnight cultures for small scale plasmid preparation. […] By automated sequencing the inserts and approximately 50 bp of the flanking vector sequences are confirmed on both strands. Production of viruses: Viruses for each of the kinases are made according to the protocol supplied by GIBCO if not stated otherwise. In brief, transfer vectors containing the kinase domains are transfected into the DH10Bac cell line (GIBCO) and plated on selective agar plates. Colonies without insertion of the fusion sequence into the viral genome (carried by the bacteria) are blue. Single white colonies are picked and viral DNA (bacmid) isolated from the bacteria by standard plasmid purification procedures. Sf9 cells or Sf21 cells are then transfected in 25 cm2 flasks with the viral DNA using Cellfectin reagent according to the protocol. Purification of GST-tagged kinases: The centrifuged cell lysate is loaded onto a 2 mL glutathione-sepharose column (Pharmacia) and washed three times with 10 mL of 25 mM Tris-HCl, pH 7.5, 2 mM EDTA, 1 mM DTT, 200 mM NaCl. The GST-tagged proteins are then eluted by 10 applications (1 mL each) of 25 mM Tris-HCl, pH 7.5, 10 mM reduced-glutathione, 100 mM NaCl, 1 mM DTT, 10% Glycerol and stored at −70° C. Protein kinase assays: The activities of protein kinases are assayed in the presence or absence of inhibitors, by measuring the incorporation of 33P from [γ33P]ATP into a polymer of glutamic acid and tyrosine (poly(Glu,Tyr)) as a substrate. The kinase assays with purified GST-EphB (30 ng) are carried out for 15-30 min at ambient temperature in a final volume of 30 μL containing 20 mM Tris.HCl, pH 7.5, 10 mM MgCl2, 3-50 mM MnCl2, 0.01 mM Na3VO4, 1% DMSO, 1 mM DTT, 3 μg/mL poly(Glu,Tyr) 4:1 (Sigma; St. Louis, Mo., USA) and 2.0-3.0 μM ATP (γ-[33P]-ATP 0.1 μCi). The assay is terminated by the addition of 20 μL of 125 mM EDTA. Subsequently, 40 μl of the reaction mixture are transferred onto Immobilon-PVDF membrane (Millipore, Bedford, Mass., USA) previously soaked for 5 min with methanol, rinsed with water, then soaked for 5 min with 0.5% H3PO4 and mounted on vacuum manifold with disconnected vacuum source. After spotting all samples, vacuum is connected and each well rinsed with 200 μl 0.5% H3PO4. Membranes are removed and washed 4× on a shaker with 1.0% H3PO4, once with ethanol. Membranes are counted after drying at ambient temperature, mounting in Packard TopCount96-well frame, and addition of 10 μL/well of Microscint™ (Packard). IC50 values are calculated by linear regression analysis of the percentage inhibition of each compound in duplicate, at four concentrations (usually 0.01, 0.1, 1 and 10 μM). One unit of protein kinase activity is defined as 1 nmole of 33P ATP transferred from [γ33P] ATP to the substrate protein per minute per mg of protein at 37° C. Compounds of formula I show EphB4 inhibition down to 10 nM, preferably IC50 values between 0.01-1.0 μM.

melting point [°C] | SMILES | further results
– | COc1cccc(-c2cnc3c(-c4ccc(N5CCN(C)CC5)cc4)cnn3c2N)c1 [Example 2, 6-(3-Methoxy-phenyl)-3-[4-(4-methyl-piperazin-1-yl)-phenyl]-pyrazolo[1,5-a]pyrimidin-7-ylamine] | IC50 (Cdk1/cycB): < 10 µM
143 to 146 | CN(C)c1ccc(-c2cnn3c(N)c(-c4ccc(NS(=O)(=O)c5cccc(Cl)c5Cl)cc4)cnc23)cc1 [Example 10, N-{4-[7-Amino-3-(4-dimethylamino-phenyl)-pyrazolo[1,5-a]pyrimidin-6-yl]-phenyl}-2,3-dichloro-benzenesulfonamide] | –
186 to 188 | CN(C)c1ccc(-c2cnn3c(N)c(-c4ccc(OS(=O)(=O)c5ccc(Cl)cc5)cc4)cnc23)cc1 [Example 11, 4-Chloro-benzenesulfonic acid 4-[7-amino-3-(4-dimethylamino-phenyl)-pyrazolo[1,5-a]pyrimidin-6-yl]-phenyl ester] | –
– | CN1CCN(c2cccc(-c3cnn4c(N)c(-c5ccccc5O)cnc34)c2)CC1 [Example 37, 2-{7-Amino-3-[3-(4-methyl-piperazin-1-yl)-phenyl]-pyrazolo[1,5-a]pyrimidin-6-yl}-phenol] | IC50 (Cdk1/cycB): < 10 µM
– | Cn1cc(-c2cnn3c(N)c(-c4cccc(O)c4)cnc23)c2ccccc21 [Example 45, 3-[7-Amino-3-(1-methyl-1H-indol-3-yl)-pyrazolo[1,5-a]pyrimidin-6-yl]-phenol] | IC50 (human EphB4 receptor; Table 4, read-out: EphB4, activity (IC50 for kinase inhibition)): < 10 µM
116 to 121 | COc1ccc(N2CCN(C)CC2)cc1-c1cnn2c(N)c(-c3cccc(Cl)c3)c(C)nc12 [Example 74, 6-(3-Chloro-phenyl)-3-[2-methoxy-5-(4-methyl-piperazin-1-yl)-phenyl]-5-methyl-pyrazolo[1,5-a]pyrimidin-7-ylamine] | IC50 (human EphB4 receptor; Table 5, read-out: EphB4, IC50 class): < 1 µM
163 to 168 | CCN(CC)C1CCN(c2cccc(-c3cnn4c(N)c(-c5cccc(Cl)c5)c(C)nc34)c2)CC1 [Example 104, 6-(3-Chloro-phenyl)-3-[3-(4-diethylamino-piperidin-1-yl)-phenyl]-5-methyl-pyrazolo[1,5-a]pyrimidin-7-ylamine] | –
208 to 210 | CCN(CC)C1CCN(c2cccc(-c3cnn4c(N)c(-c5ccc(F)cc5)c(C)nc34)c2)CC1 [Example 105, 3-[3-(4-Diethylamino-piperidin-1-yl)-phenyl]-6-(4-fluoro-phenyl)-5-methyl-pyrazolo[1,5-a]pyrimidin-7-ylamine] | –
